From patent publication US20070149580A1, “USE OF PEROXISOME PROLIFERATOR ACTIVATED RECEPTOR DELTA AGONISTS FOR THE TREATMENT OF MS AND OTHER DEMYELINATING DISEASES” (AVENTIS PHARMACEUTICALS INC., priority 2004, published 2007)

Experiments:
human RXR receptor = assay: Cellular human RXR receptor luciferase reporter assay; type: cell-based; conditions: Retinoid X receptor
Protocol: Determination of EC50 Values in the Cellular Human RXR Receptor Assay
Cell Based RXR Assay Protocol
To perform cell based assays a luciferase assay is performed in 96 well plates as follows: […]
• Aspirate medium from cells • Freeze plates at −20° C. (optional) • Thaw plates for 30 min (if necessary) • Add 50 μl Bright-Glo-Luciferase Assay Reagent (Promega, Cat. No. E2650) • Incubate for 10 min in the dark • Measure luminescence 2 sec per well (Wallac Microbeta) Data Analysis […]

[1] = system: mixed cultures of human oligodendrocytes; assay: Human oligodendrocyte differentiation assay (O4 immunopositive cell count); type: cell-based; conditions: FIGS. 5 and 6
Protocol: • 1. Human neurospheres collected from E19.5-[…] human embryo cortex) are cultured for 2 weeks in progenitor media: […] Neurospheres are dissociated with 20 U/ml papain at 37° C. for 30-50 min. • 3. Cells are plated onto PDL coated dishes at density of 50,000-100,000 cell/well in progenitor media containing PDGF/FGF and incubated at 37° C. with 5-6% CO2. • 4. Media and growth factors are replenished every 48 hr. Human Culture Compound Treatment: • 1. 24 to 48 hr after plating remove the old medium and add compounds in fresh medium (with mitogen) • 2. Compound dose response evaluations are performed at 3-6 different concentrations (10 µM, 1 µM, 100 nM, 10 nM, 1 nM, and 0.1 nM) • 3. […] Sequential staining is performed on oligodendrocyte populations with increasing degrees of cellular differentiation, as determined by days in vitro without PDGF and FGF. • 2. […] Colormetric visualization of the BrdU immunoreactivity is developed with DAB and total cell numbers are assessed using the counter-stain hematoxylin. • 4. BrdU immunopositive cells are counted by two independent observers. Rat/Mouse/Human Culture Image Analysis: Fluorescent microscopy is used to quantitate the extent of oligodendrocyte differentiation after compound exposure. […] Manual Cell Counting: Four fields are randomly selected for each experimental condition and 500-600 cells are counted in each field. […]

| SMILES | Human PPAR RXR EC50 (human RXR receptor) | number of O4 immunopositive cells [1] |
| --- | --- | --- |
| Cc1cc(SCc2sc(-c3ccc(C(F)(F)F)cc3)nc2C)ccc1OCC(=O)O [Compound 1] | No increase | increase |
| CCCc1c(OCCCOc2ccc(OCC(=O)O)cc2)ccc(C(C)=O)c1O [Compound 2] | No increase | increase |
